Data as given in US20250034216A1, “STEREOSELECTIVE COVALENT LIGANDS FOR ONCOGENIC AND IMMUNOLOGICAL PROTEINS” (The Scripps Research Institute, priority 2021, published 2025).

Tests used:
Experiment in all cases: IA-DTB cysteine engagement
Format in all cases: binding
Details in all cases: 22Rv1 cells, 20 μM probe, 1 h, relative to DMSO
LAPTM4A_C20 = biological target: T1, LAPTM4A_C20 (Homo sapiens, UniProt Q15012)
T1 construct: endogenous in cells; host or cells: 22Rv1
How it was run: (§1)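 Read-out is TMT-based cysteine engagement, expressed as each reporter ion intensity divided by the average of the DMSO channels. Before that, probe-treated cell lysates were capped with IA-DTB, digested, enriched on streptavidin and TMT-tagged. PSMs with DMSO summed intensity <10,000 or DMSO CV >0.5 were excluded.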

SLC25A39_C334 = biological target: T2, SLC25A39_C334 (Homo sapiens, UniProt Q9BZJ4)
T2 construct: endogenous in cells; host or cells: 22Rv1
T2 sequence (Q9BZJ4 1-359): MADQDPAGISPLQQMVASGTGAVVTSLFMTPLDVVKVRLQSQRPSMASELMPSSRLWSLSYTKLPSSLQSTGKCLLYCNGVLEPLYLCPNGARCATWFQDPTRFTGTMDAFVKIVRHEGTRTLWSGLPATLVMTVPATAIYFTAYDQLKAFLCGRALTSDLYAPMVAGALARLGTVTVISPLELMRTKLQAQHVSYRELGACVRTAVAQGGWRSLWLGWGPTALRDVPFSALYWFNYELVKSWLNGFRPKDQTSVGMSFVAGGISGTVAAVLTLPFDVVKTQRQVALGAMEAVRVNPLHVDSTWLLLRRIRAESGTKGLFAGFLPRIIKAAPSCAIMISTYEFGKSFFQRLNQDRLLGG
How it was run: as §1

TBC1D13_C282 = biological target: T3, TBC1D13_C282 (Homo sapiens, UniProt Q9NVG8)
T3 construct: endogenous in cells; host or cells: 22Rv1
T3 sequence (Q9NVG8 1-400): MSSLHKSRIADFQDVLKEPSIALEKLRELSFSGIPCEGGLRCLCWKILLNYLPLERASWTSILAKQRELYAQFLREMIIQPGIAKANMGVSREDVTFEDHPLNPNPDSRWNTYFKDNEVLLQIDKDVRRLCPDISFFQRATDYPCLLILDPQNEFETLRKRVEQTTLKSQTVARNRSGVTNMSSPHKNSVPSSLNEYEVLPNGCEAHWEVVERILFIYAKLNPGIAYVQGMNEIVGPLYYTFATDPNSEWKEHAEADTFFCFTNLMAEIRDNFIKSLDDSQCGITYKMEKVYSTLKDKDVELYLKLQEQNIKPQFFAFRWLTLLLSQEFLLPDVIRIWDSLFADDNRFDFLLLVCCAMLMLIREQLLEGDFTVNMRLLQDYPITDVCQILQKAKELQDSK
How it was run: as §1

TRPM4_C759 = biological target: T4, TRPM4_C759 (Homo sapiens, UniProt Q8TD43)
T4 construct: endogenous in cells; host or cells: 22Rv1
How it was run: as §1

T4 sequence (Q8TD43 whole entry): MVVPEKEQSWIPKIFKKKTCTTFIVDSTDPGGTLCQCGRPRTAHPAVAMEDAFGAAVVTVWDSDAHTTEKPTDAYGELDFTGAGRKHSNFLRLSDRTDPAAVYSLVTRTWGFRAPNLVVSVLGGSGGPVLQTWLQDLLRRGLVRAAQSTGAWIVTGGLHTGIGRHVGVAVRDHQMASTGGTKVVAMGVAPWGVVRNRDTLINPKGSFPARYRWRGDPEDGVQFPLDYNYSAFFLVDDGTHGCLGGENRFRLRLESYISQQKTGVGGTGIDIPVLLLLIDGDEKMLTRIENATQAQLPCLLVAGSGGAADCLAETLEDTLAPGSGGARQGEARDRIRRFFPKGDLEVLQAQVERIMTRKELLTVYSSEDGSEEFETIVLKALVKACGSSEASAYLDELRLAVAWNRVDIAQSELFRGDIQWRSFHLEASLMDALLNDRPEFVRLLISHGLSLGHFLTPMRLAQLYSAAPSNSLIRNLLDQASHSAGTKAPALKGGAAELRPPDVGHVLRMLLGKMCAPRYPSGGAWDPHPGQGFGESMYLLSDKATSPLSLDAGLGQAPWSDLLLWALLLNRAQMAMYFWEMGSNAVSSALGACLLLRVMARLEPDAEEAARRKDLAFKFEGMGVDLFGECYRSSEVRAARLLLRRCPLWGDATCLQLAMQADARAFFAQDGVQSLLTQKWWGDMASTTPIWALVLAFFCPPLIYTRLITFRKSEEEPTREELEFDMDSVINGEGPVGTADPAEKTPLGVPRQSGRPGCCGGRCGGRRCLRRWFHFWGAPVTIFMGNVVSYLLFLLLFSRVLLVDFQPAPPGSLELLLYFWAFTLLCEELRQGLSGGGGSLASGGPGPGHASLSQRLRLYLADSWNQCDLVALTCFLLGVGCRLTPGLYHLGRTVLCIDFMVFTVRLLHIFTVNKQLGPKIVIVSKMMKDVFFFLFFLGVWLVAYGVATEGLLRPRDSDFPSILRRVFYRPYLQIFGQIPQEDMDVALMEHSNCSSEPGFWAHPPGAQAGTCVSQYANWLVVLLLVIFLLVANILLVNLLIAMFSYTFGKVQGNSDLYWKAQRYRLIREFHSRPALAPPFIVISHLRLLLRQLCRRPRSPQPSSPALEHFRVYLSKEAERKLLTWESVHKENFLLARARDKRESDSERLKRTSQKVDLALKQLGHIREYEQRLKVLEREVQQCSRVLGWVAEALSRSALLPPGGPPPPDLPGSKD

| SMILES | % engagement LAPTM4A_C20 (LAPTM4A_C20) | % engagement SLC25A39_C334 (SLC25A39_C334) | % engagement TBC1D13_C282 (TBC1D13_C282) | % engagement TRPM4_C759 (TRPM4_C759) |
| --- | --- | --- | --- | --- |
| C=CC(=O)N1C[C@H](c2ccc(Br)cc2)[C@@H]1C(=O)Nc1cccc2cccnc12 [MY-1B, (2R,3S)-1-acryloyl-3-(4-bromophenyl)-N-(quinolin-8-yl)azetidine-2-carboxamide] | 55% | 45.5% | 1% | 48.75% |
| C=CC(=O)N1C[C@H](c2ccc(Br)cc2)[C@H]1C(=O)Nc1cccc2cccnc12 [MY-3B, (2S,3S)-1-acryloyl-3-(4-bromophenyl)-N-(quinolin-8-yl)azetidine-2-carboxamide] | 70.5% | 72% | 51.5% | 76.25% |
| C=CC(=O)N1C[C@H](c2ccc(Br)cc2)[C@H]1C(=O)Nc1cccc2cccnc12 [MY-3A, (2S,3S)-1-acryloyl-3-(4-bromophenyl)-N-(quinolin-8-yl)azetidine-2-carboxamide] | 49.5% | 30.5% | −16% | 50.25% |
| C=CC(=O)N1C[C@@H](c2ccc(Br)cc2)[C@H]1C(=O)Nc1cccc2cccnc12 [MY-1A, (2S,3R)-1-acryloyl-3-(4-bromophenyl)-N-(quinolin-8-yl)azetidine-2-carboxamide] | 69% | 23% | 75.75% | 69.75% |
